Source: patent US8591935B2, “Methods and compositions for treating pain comprising a statin” (Warsaw Orthopedic, Inc., priority 2008, dated 2013)

What was measured:
[1] = system: chronic constriction injury (CCI) rats; experiment: Thermal hyperalgesia: paw withdrawal latency to thermal radiant heat (Hargreaves test) in the chronic constriction injury model; assay type: in vivo, Wister rats
Experimental: This model may mimic pain associated with sciatica in humans. Twenty-eight male Wister rats (Charles River Laboratories, Wilmington, Mass.) weighing 300±26 g the day of surgery (Day 1) were used in this study. All experiments were conducted in accordance with the International Association for the Study of Pain guidelines and approved by the Institutional Animal Care and Use Committee at SRI International, Inc (Menlo Park, Calif.). CCI was induced according to the method of Bennett and Xie. Briefly, each animal was anesthetized by intraperitoneal (IP) injection of sodium pentobarbital at a dose of 60 mg/kg. The animal's common sciatic nerve was exposed and freed from adherent tissue at mid-thigh by separating the biceps femoris muscles by blunt dissection. Four loose ligatures were placed 1 mm apart, using chromic gut suture (4-0 absorbable suture; Jorgensen Laboratories, Inc., Loveland, Colo.). Seven animals were randomly assigned to each treatment group. […] The radiant infrared heat source stimulus intensity was set to IR50 and the cut-off time was set at 15 seconds. Rats were placed on a glass platform and allowed to habituate to the testing chambers for a minimum of 15 minutes prior to each testing session. The thermal stimulus was applied to the plantar surface of the paw. Thermal thresholds were defined as the latency in seconds at the first pain behavior, which includes paw withdrawal, flinching, biting and/or licking of the stimulated paw. The readings for all animals were averaged and the mean and standard error of the mean (SEM) were determined for each treatment group.

[2] = system: chronic constriction injury (CCI) rats; experiment: Mechanical allodynia: von Frey monofilament test in the chronic constriction injury model; assay type: in vivo, Wister rats
Experimental: This model may mimic pain associated with sciatica in humans. Twenty-eight male Wister rats (Charles River Laboratories, Wilmington, Mass.) weighing 300±26 g the day of surgery (Day 1) were used in this study. All experiments were conducted in accordance with the International Association for the Study of Pain guidelines and approved by the Institutional Animal Care and Use Committee at SRI International, Inc (Menlo Park, Calif.). CCI was induced according to the method of Bennett and Xie. Briefly, each animal was anesthetized by intraperitoneal (IP) injection of sodium pentobarbital at a dose of 60 mg/kg. The animal's common sciatic nerve was exposed and freed from adherent tissue at mid-thigh by separating the biceps femoris muscles by blunt dissection. Four loose ligatures were placed 1 mm apart, using chromic gut suture (4-0 absorbable suture; Jorgensen Laboratories, Inc., Loveland, Colo.). Seven animals were randomly assigned to each treatment group. Mechanical allodynia was measured using von Frey monofilaments (Stoelting, Wood Dale, Ill.) with varying stiffness (2.0-15.0 g) on Days −1 (baseline), 8, and 15 as described previously. Animals were placed on a perforated metallic platform and allowed to habituate to their surroundings for a minimum of 15 minutes before testing. The 50% paw withdrawal threshold response was determined by a sequential increasing and/or decreasing of the stimulus strength (the “up-down method” of Dixon). Each filament was applied with enough pressure to cause a buckling effect. Absence of a paw lifting/withdrawal response after 5 seconds prompted the use of the filament of next higher weight. Paw withdrawal indicating a positive response prompted the use of a weaker filament. After the initial response (i.e., paw withdrawal), the testing continued for four additional measurements and was used to calculate the response threshold. Four consecutive positive responses received a score of 0.25 g, and five consecutive negative responses (i.e., no paw withdrawal) received a score of 15 g. The 50% paw withdrawal threshold was calculated using the formula: 10 (Xf+kd)/10,000, where Xf is the final von Frey filament used (log units), k is a value that analyzes the response pattern (taken from the table published by Chaplan et al.), and d is the mean difference between stimuli (log units). The mean and standard error of the mean (SEM) were determined for each treatment group.

[3] = lovastatin 0.3 mg/kg/day IP for 15 days, CCI rats
[4] = lovastatin 3 mg/kg/day IP for 15 days, CCI rats
[5] = sulindac 2 mg/kg/day IP for 15 days, CCI rats

## CC[C@H](C)C(=O)O[C@H]1C[C@@H](C)C=C2C=C[C@H](C)[C@H](CC[C@@H]3C[C@@H](O)CC(=O)O3)[C@H]21 [lovastatin]
[1]; high dose lovastatin pump group, 0.4 mcg/hr
  thermal hyperalgesia withdrawal score, course over the study: steadily improved during the course of the study
[1]; high dose lovastatin pump group, 0.4 mcg/hr, day 21
  thermal hyperalgesia withdrawal score compared with other statin groups: statistically equivalent to the other two statin groups
[1]; [3]
  pain reduction, paw withdrawal latency to thermal radiant heat vs PBS vehicle: effective at reducing pain
[1]; lovastatin 0.3 mg/kg/day IP, Day 7
  thermal withdrawal time as % of per-operative baseline: 68%
[1]; lovastatin 0.3 mg/kg/day IP, all days tested
  thermal hyperalgesia pain behavioral response vs 50:50 DMSO/PBS vehicle: reduced this pain behavioral response at all days tested
[1]; lovastatin 0.3 mg/kg/day IP, days 14 and 21
  thermal withdrawal time as % of per-operative baseline: 61%
[1]; [4]
  pain reduction, paw withdrawal latency to thermal radiant heat vs PBS vehicle: effective at reducing pain
[1]; lovastatin 3 mg/kg/day IP, at day 14
  pain reduction, paw withdrawal latency to thermal radiant heat vs PBS vehicle: particularly effective
[1]; low dose lovastatin group (100-fold decrease from 0.3 mg/kg/day), all testing days
  thermal withdrawal scores as % of baseline: ~60%
[2]; lovastatin 40 ng/hr group
  mechanical allodynia pain behavioral response compared with the 0.3 mg/kg/day group: probably statistically equivalent
[2]; [3]
  pain reduction, von Frey paw withdrawal threshold (mechanical stimulation) vs PBS vehicle: effective at reducing pain
[2]; lovastatin 0.3 mg/kg/day, all time points
  mechanical allodynia pain behavioral response: able to reduce this pain behavioral response at all time points
[2]; [4]
  pain reduction, von Frey paw withdrawal threshold (mechanical stimulation) vs PBS vehicle: effective at reducing pain
[2]; lovastatin 3 mg/kg/day IP, at day 15
  pain reduction, von Frey paw withdrawal threshold (mechanical stimulation) vs PBS vehicle: particularly effective
[2]; lovastatin 0.4 mcg/hr
  mechanical allodynia pain response compared with 50:50 DMSO/PBS vehicle control: probably statistically equivalent to the vehicle control

## CC1=C(CC(=O)O)c2cc(F)ccc2/C1=C\c1ccc([S+](C)[O-])cc1 (stereo not shown) [sulindac]
[1]; [5]
  pain reduction, paw withdrawal latency to thermal radiant heat vs PBS vehicle: effective at reducing pain
[1]; sulindac 2 mg/kg/day IP, at 7 and 14 days
  pain reduction, paw withdrawal latency to thermal radiant heat vs PBS vehicle: particularly effective
[2]; [5]
  pain reduction, von Frey paw withdrawal threshold (mechanical stimulation) vs PBS vehicle: effective at reducing pain
[2]; sulindac 2 mg/kg/day IP, at 8 and 15 days
  pain reduction, von Frey paw withdrawal threshold (mechanical stimulation) vs PBS vehicle: particularly effective
